Counter-ions that a name gives are not always drawn.
target: T1, human 5-HT6 receptor (Homo sapiens, UniProt P50406); experiment: Human 5-HT6 Receptor Binding Assay ([3H]LSD displacement, scintillation beads); conditions: membranes of CHO-K1 cells with recombinant human 5-HT6, 4 nM [3H]LSD; Table 1, class symbols; read-out: h5-HT6 (Ki)
T1 construct: host or cells: CHO-K1 cells, stably transfected; membranes prepared in house
Experimental: Human 5-HT6 Receptor Binding Assay
Membranes were prepared from CHO—K1 cells stably transfected with the human 5-HT6 receptor (Euroscreen; ES-316-C). The cells were grown in Gibco Advanced DMEM-F12 (Cat#12634010) containing 2% dialyzed FBS (Hyclone Cat#SH30079.03). The cells were harvested in phosphate buffered saline (PBS) containing 0.1 mM EDTA and pelleted by centrifugation (1000×g), the supernatant was discarded and the pellets were stored at −80° C. prior to membrane preparation. Membranes were prepared as previously described (J Bio Chem. 1992, 267 (14) 9844-51). Briefly, frozen cell pellet was resuspended in a lysis buffer containing 5 mM Tris-HCl (pH 7.5), 5 mM EDTA and 1 complete EDTA-free protease inhibitor tablet (Roche Applied Science, Indianapolis, Ind.) per 50 mL buffer, and homogenized with a tissue homogenizer. The cell lysate was then centrifuged at 40,000×g for 30 min at 4° C. to collect the membranes. The membrane pellets were washed in membrane buffer (50 mM Tris-HCl (pH 7.5), 0.6 mM EDTA, 5 mM MgCl2, 1 complete EDTA-free protease inhibitor tablet per 50 mL buffer) using a tissue homogenizer. The membranes were centrifuged at 40,000×g for 30 min at 4° C. and the pellets were resuspended in membrane buffer containing 250 mM sucrose, and protein concentration was determined using the Coomassie Plus kit (Pierce Biotechnology, Rockford, Ill.).
Membranes prepared from cells expressing recombinant human 5-HT6 receptor (h5-HT6) were resuspended in assay buffer containing 50 mM Tris HCl, (pH7.4), 4 mM CaCl2, 10 μg/mL saponin, and 0.1% (w/v) ascorbic acid. Membranes were preincubated using 1.75 μg membrane protein and 0.25 mg FlashBlue scintillation beads (PerkinElmer catalogue #FB001) per well at 4° for 30 min. […] Test compounds or assay controls for total and non-specific binding were diluted in DMSO as 100× solutions and serially diluted by half log concentrations on a Perkin Elmer JANUS Automated Workstation. Serotonin (10 μM final concentration) was used to determine non-specific binding in the assay. Plates were read using the Microbeta Trilux 1450 LSC and luminescence counter. Data were analyzed by nonlinear […] using the dose-response equation (variable slope) to calculate IC50 in XLfit4 (ID Business Solutions Inc.): y=(Bottom+((Top−Bottom)/(1+((IC50/x)^Hill slope))))
Ki value was then calculated according to the Cheng-Prusoff method using the equation below (Cheng and Prusoff, 1973): Ki,app=IC50/(1+[radioligand]/Kd))

T1 sequence (P50406 whole entry): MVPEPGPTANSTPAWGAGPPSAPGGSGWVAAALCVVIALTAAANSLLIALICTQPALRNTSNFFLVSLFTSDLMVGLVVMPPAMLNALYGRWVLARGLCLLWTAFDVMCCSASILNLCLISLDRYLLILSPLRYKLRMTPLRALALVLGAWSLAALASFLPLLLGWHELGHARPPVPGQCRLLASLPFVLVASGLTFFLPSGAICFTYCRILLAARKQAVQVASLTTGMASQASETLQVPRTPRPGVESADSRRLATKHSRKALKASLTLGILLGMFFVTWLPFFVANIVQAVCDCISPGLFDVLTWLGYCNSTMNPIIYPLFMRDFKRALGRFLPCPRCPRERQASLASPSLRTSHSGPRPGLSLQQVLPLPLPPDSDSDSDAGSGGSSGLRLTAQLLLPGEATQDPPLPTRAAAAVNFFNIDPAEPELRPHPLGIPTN

| Structure (SMILES) | Ki |
| --- | --- |
| CN(C)C(=O)CC1(C)NCCc2c1oc1cc(S(=O)(=O)c3cccc(F)c3)ccc21 (single isomer, unassigned) [Example 50, 2-{7-[(3-fluorophenyl)sulfonyl]-1-methyl-1,2,3,4-tetrahydro[1]benzofuro[2,3-c]pyridin-1-yl}-N,N-dimethylacetamide] | < 500 nM |
| O=S(=O)(Oc1ccc2c(c1)C1CCNCC1O2)c1cccc2nsnc12 (stereo not drawn) [Example 730] | > 1000 nM |
| CC12CCNCC1Oc1ccc(OS(=O)(=O)c3ccc4c(c3)OCCO4)cc12 (stereo not drawn) [Example 775] | < 500 nM |
| O=S(=O)(c1cc(F)cc(F)c1)c1ccc2c3c(oc2c1)CNCC3 [Example 107, 7-(3,5-Difluoro-benzenesulfonyl)-1,2,3,4-tetrahydro-benzo[4,5]furo[2,3-c]pyridine hydrochloride] | < 500 nM |
| CC1(C)NCCc2c1oc1cc(S(=O)(=O)c3cc(Cl)cnc3O)ccc21 [Example 373] | > 1000 nM |
| O=S(=O)(c1cc(F)cc(F)c1)c1ccc2c3c(oc2c1)C1(CCOC1)NCC3 (stereo not drawn) [Example 302] | < 500 nM |
| CC(C)Oc1cccc(S(=O)(=O)c2ccc3c4c(oc3c2)C2(CCCOC2)NCC4)c1 (racemic) [Example 23, 7-{[3-(propan-2-yloxy)phenyl]sulfonyl}-3,4,5′,6′-tetrahydro-2H,4′H-spiro[1-benzofuro[2,3-c]pyridine-1,3′-pyran]] | < 500 nM |
| O=[N+]([O-])c1ccc(S(=O)(=O)c2ccc3oc4c(c3c2)CCNC4)cc1 [Example 253] | > 1000 nM |
| O=S(=O)(c1cccc(OC(F)(F)F)c1)c1ccc2c(c1)OC1CNCCC21 (stereo not drawn) [Example 166, 7-{[3-(trifluoromethoxy)phenyl]sulfo-nyl}-1,2,3,4,4a,9a-hexahydro[1]benzofuro[2,3-c]pyridine] | < 500 nM |
| O=S(=O)(Oc1ccc2c(c1)C1CCNCC1O2)c1c(Cl)cccc1Cl (stereo not drawn) [Example 741] | < 500 nM |
| CC1(C)CNCc2oc3cc(S(=O)(=O)c4ccccc4)ccc3c21 [Example 286] | < 500 nM |
| O=S(=O)(c1ccccc1)c1ccc2c3c(oc2c1)CNCC3 [Example 339, 7-(phenylsulfonyl)-1,2,3,4-tetrahydro[1]benzofuro[2,3-c]pyridine] | < 500 nM |
| O=S(=O)(c1cccc(OCC2CCCCO2)c1)c1ccc2c(c1)OC1CNCCC21 (stereo not drawn) [Example 553] | < 500 nM |
| O=S(=O)(c1cccc(Cl)c1)c1ccc2c3c(oc2c1)C(CCBr)NCC3 (stereo not drawn) [Example 501, 1-(2-bromoethyl)-7-[(3-chlorophenyl)sulfonyl]-1,2,3,4-tetrahydro[1]benzofuro[2,3-c]pyridine] | < 500 nM |
| O=S(=O)(c1ccc2c3c(oc2c1)CNCC3)c1c(F)c(F)cc(F)c1F [Example 225] | < 500 nM |
| O=S(=O)(c1ccc(Oc2ccccc2)cc1)c1ccc2c(c1)C1CCNCC1O2 (stereo not drawn) [Example 173] | > 1000 nM |
| Cc1oncc1S(=O)(=O)Oc1ccc2c(c1)OC1CNCCC21 (stereo not drawn) [Example 640] | > 1000 nM |
| Cc1ccc(F)cc1S(=O)(=O)c1ccc2c3c(oc2c1)CNCC3 [Example 206] | < 500 nM |
| CC(C)CN1CCc2c(oc3cc(S(=O)(=O)c4cccc(Cl)c4)ccc23)C1 [Example 600] | < 500 nM |
| COc1cc(F)cc(S(=O)(=O)c2ccc3c(c2)OC2CNCCC32)c1 (stereo not drawn) [Example 407] | < 500 nM |
| O=S(=O)(c1cc(F)cc(F)c1)c1ccc2c3c([nH]c2c1)C1(CCCOC1)NCC3 (stereo not drawn) [Example 312] | < 500 nM |
| O=S(=O)(c1ccc2c(c1)OC1CNCCC21)c1ccc2ccccc2c1 (stereo not drawn) [Example 122] | < 500 nM |
| O=S(=O)(c1ccccc1)c1ccc2c(c1)OC1CNCCC21 (stereo not drawn) [Example 326, 7-(phenylsulfonyl)-1,2,3,4,4a,9a-hexahydro[1]benzofuro[2,3-c]pyridine] | < 500 nM |
| [O-][S+](c1ccc2c3c(oc2c1)CNCC3)c1ccccc1Cl (stereo not drawn) [Example 229] | < 500 nM |
| O=S(=O)(c1ccccc1)c1ccc2c(c1)OC1CN(C3CCCCC3)CCC21 (stereo not drawn) [Example 610] | 500 to 1000 nM |
| Nc1cccc(S(=O)(=O)c2ccc3oc4c(c3c2)CCNC4)c1 [Example 349] | < 500 nM |
| CN(Cc1ccccc1)S(=O)(=O)c1ccc2c(c1)C1CCNCC1O2 (stereo not drawn) [Example 858] | > 1000 nM |

| Structure (SMILES) | Ki |
| --- | --- |
| COC(=O)c1cccc(S(=O)(=O)c2ccc3c4c(oc3c2)CNCC4)c1 [Example 219] | < 500 nM |
| [O-][S+](c1cccc(OC(F)(F)F)c1)c1ccc2c3c(oc2c1)C1(CCOCC1)NCC3 (stereo not drawn) [Example 299, 7-{[3-(trifluoromethoxy)phenyl]sulfi-nyl}-2′,3,3′,4,5′,6′-hexahydro-2H-spiro[1-benzofuro[2,3-c]pyridine-1,4′-pyran]] | < 500 nM |
| O=S(=O)(c1ccc2c(c1)OC1CNCCC21)c1ccccc1Cl (stereo not drawn) [Example 113] | < 500 nM |
| COc1ccc(S(=O)(=O)c2ccc3c4c(oc3c2)CNCC4)cc1 [Example 198] | < 500 nM |
| O=S(=O)(c1ccccc1)c1ccc2c(c1)C1CCNCC1O2 (stereo not drawn) [Example 334, 6-(phenylsulfonyl)-1,2,3,4,4a,9a-hexahydro[1]benzofuro[2,3-c]pyridine] | 500 to 1000 nM |
| O=S(=O)(c1ccc2c3c(oc2c1)CNCC3)c1cccc(F)c1F [Example 432] | < 500 nM |
| O=S(=O)(Oc1ccc2c(c1)C1CCNCC1O2)c1ccc2c(c1)OCCO2 (stereo not drawn) [Example 729] | < 500 nM |
| CC(=O)N(C)CCC1NCCc2c1oc1cc(S(=O)(=O)c3cccc(F)c3)ccc21 (racemic) [Example 538, N-(2-{7-[(3-fluorophenyl)sulfonyl]-1,2,3,4-tetrahydro[1]benzofuro[2,3-c]pyridin-1-yl}ethyl)-N-methylacetamide] | < 500 nM |
| CCN1CCC2(C)c3cc(OS(=O)(=O)Cc4ccccc4)ccc3OC2C1 (stereo not drawn) [Example 810, 2-Ethyl-4a-methyl-1,2,3,4,4a,9a-hexahydro[1]benzofuro[2,3-c]pyridin-6-yl phenylmethanesulfonate] | > 1000 nM |
| COc1cccc(S(=O)(=O)c2cccc3c2OC2CNCCC32)c1 (stereo not drawn) [Example 182] | < 500 nM |
| CC(=O)NCCC1NCCc2c1oc1ccc(S(=O)(=O)c3cccc(F)c3)cc21 (stereo not drawn) [Example 532, N-(2-{6-[(3-fluorophenyl)sulfonyl]-1,2,3,4-tetrahydro[1]benzofuro[2,3-c]pyridin-1-yl}ethyl)acetamide] | 500 to 1000 nM |
| [O-][S+](c1ccc2c3c(oc2c1)CNCC3)c1c(F)c(F)cc(F)c1F (stereo not drawn) [Example 224] | < 500 nM |
| [O-][S+](c1ccc2c(c1)OC1CNCCC21)c1cccc(F)c1F (stereo not drawn) [Example 384] | < 500 nM |
| Cc1ccc(S(=O)(=O)c2ccc3oc4c(c3c2)CCNC4)cc1 [Example 252] | < 500 nM |
| CC1(C(F)F)NCCc2c1oc1cc(S(=O)(=O)c3cccc(F)c3F)ccc21 (single isomer, unassigned; enantiomer 1) [Example 471, 1-(Difluoromethyl)-7-[(2,3-difluorophenyl)sulfonyl]-1-methyl-1,2,3,4-tetrahydro[1]benzofuro[2,3-c]pyridine, enantiomer 1] | < 500 nM |
| O=S(=O)(c1cccc(C(F)(F)F)c1)c1ccc2c3c(oc2c1)C1(CCOC1)NCC3 (stereo not drawn) [Example 304] | < 500 nM |
| O=S(=O)(c1ccc2c(c1)OC1CNCCC21)c1cccc(OCC2CCOCC2)c1F (stereo not drawn) [Example 482] | < 500 nM |
| O=S(=O)(c1ccc(Cl)c(Cl)c1)c1ccc2c(c1)OC1CNCCC21 (stereo not drawn) [Example 120] | < 500 nM |
| CNC(=O)c1cccc(S(=O)(=O)c2ccc3c4c(oc3c2)CNCC4)c1 [Example 478] | 500 to 1000 nM |
| O=S(=O)(c1cccc(OCc2cnccn2)c1)c1ccc2c(c1)OC1CNCCC21 (stereo not drawn) [Example 567] | < 500 nM |
| COc1ccc(S(=O)(=O)c2ccc3c4c(oc3c2)C(C)(C)NCC4)cc1F [Example 288] | < 500 nM |
| COc1ccc(S(=O)(=O)c2cccc3c2OC2CNCCC32)cc1 (stereo not drawn) [Example 187] | 500 to 1000 nM |
| O=S(=O)(c1ccccc1Cl)c1cccc2c1OC1CNCCC21 (stereo not drawn) [Example 183] | < 500 nM |
| O=S(=O)(c1ccc2c(c1)OC1CNCCC21)c1cccnc1OCC(F)(F)F (stereo not drawn) [Example 395] | < 500 nM |
| O=S(=O)(c1cccc(F)c1)c1ccc2c3c(oc2c1)C1CCCCN1CC3 (stereo not drawn) [Example 617] | < 500 nM |
| COCC1NCCc2c1oc1cc(S(=O)(=O)c3cccc(Cl)c3)ccc21 (stereo not drawn) [Example 502] | < 500 nM |
| CN(C)C(=O)CC1(C)NCCc2c1oc1cc(S(=O)(=O)c3cccc(F)c3)ccc21 (racemic) [Example 40, 2-{7-[(3-fluorophenyl)sulfonyl]-1-methyl-1,2,3,4-tetrahydro[1]benzofuro[2,3-c]pyridin-1-yl}-N,N-dimethylacetamide] | < 500 nM |
